In PubChem BioAssay (NCI):
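Compound exposure: 48 hours, 5 concentrations, 96-well plates. Here, GI50 denotes the concentration required for 50% inhibition of growth. TGI is the concentration that stops growth completely.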

Legend:
Test in all cases: NCI anticancer screen, dose series, 48 h
[1] = test system: 786-0 renal
[2] = test system: HS 578T breast
[3] = test system: K-562 leukemia
[4] = test system: MDA-MB-435
[5] = test system: NCI-H226 lung
[6] = test system: NCI-H460 lung
[7] = test system: OVCAR-5 ovarian
[8] = test system: SK-MEL-2 melanoma
[9] = test system: U251 CNS
[10] = test system: HCC-2998 colon

Structure (SMILES) | TGI [1] [µM] | TGI [2] [µM] | TGI [3] [µM] | TGI [4] [µM] | TGI [5] [µM] | TGI [6] [µM] | TGI [7] [µM] | TGI [8] [µM] | TGI [9] [µM] | GI50 [1] [µM] | GI50 [10] [µM] | TGI [10] [µM] | GI50 [2] [µM] | GI50 [3] [µM] | GI50 [4] [µM] | GI50 [5] [µM] | GI50 [6] [µM] | GI50 [7] [µM] | GI50 [9] [µM] | GI50 [8] [µM]
CCON=C1C(C)(C)C(C)(C)C(C)(C)C1(C)C | > 100 | > 100 | > 100 | > 100 | > 100 | > 100 | > 100 | > 100 | > 100 | – | – | – | – | – | – | – | – | – | – | –
COC(=O)Nc1nc2ccc(Oc3ccc(NC(=O)Nc4cccc(Br)c4)cc3)cc2[nH]1 | > 24.1 | > 19.8 | > 12 | 0.46 | > 25 | > 13.5 | > 25 | – | 5.68 | 3.9 | 6.04 | > 25 | 3.16 | 0.162 | 0.0839 | 7.59 | 1.27 | > 11.9 | 1.78 | –
O=c1[nH]c(-c2ccccc2)nc2ccc(Cl)cc12 | > 100 | – | > 100 | – | > 100 | – | > 100 | > 100 | > 100 | – | – | > 100 | – | – | – | – | – | – | – | –
CS(=O)(=O)N(CCC#N)c1ccc(/C=N/NC(=O)CC(=O)Nc2cccc(Cl)c2)cc1 | > 100 | – | > 100 | – | > 100 | > 100 | > 100 | > 100 | > 100 | – | – | > 100 | – | – | – | – | – | – | – | –
CN(C)/C=C/c1nnnn1-c1ccc(Cl)cc1 | 56.3 | 79.7 | > 100 | – | 44.3 | 37.3 | 55.4 | > 100 | > 100 | 14.8 | 18.3 | 34.5 | 17.5 | 19.6 | – | 15.6 | 16.9 | 24.7 | 6.5 | 13.2
Cn1ccnc1C(c1nccn1C)C(C)(C)[N+](=O)[O-] | > 100 | – | > 100 | – | – | > 100 | – | > 100 | > 100 | – | – | > 100 | – | – | – | – | – | – | – | –
Nc1ccc(N=Nc2ccccc2)c(N)n1 | 44.4 | – | > 100 | 80.1 | > 100 | 97.4 | > 100 | – | > 100 | 20.8 | 24.8 | 58.8 | – | 42.7 | 22.4 | 62.6 | 29.1 | 40.3 | 29.8 | –
Cc1ccc(C(=O)O/N=C2/CCCCC2CN(C)C)cc1 (stereo not given) | > 100 | – | > 100 | – | > 100 | > 100 | > 100 | > 100 | > 100 | – | – | > 100 | – | – | – | – | – | – | – | –
O=C1O[C@H](C(Cl)(Cl)Cl)N2CCCC12 (stereo not given in full) | > 100 | – | > 100 | – | > 100 | > 100 | > 100 | > 100 | > 100 | – | – | – | – | – | – | – | – | – | – | –
Nc1ccc(-c2nc3ccccc3[nH]2)c(O)c1 | > 100 | 71.7 | > 100 | 64.6 | > 100 | > 100 | > 100 | > 100 | > 100 | 47.4 | – | – | 21.5 | 31.5 | 28.2 | 35.5 | 30.4 | 36.4 | 60.3 | > 100
COc1ccccc1/C=C1\CCC(CNc2ccc(Cl)cc2)C1=O (stereo not given) | 22.2 | – | 19 | – | 28.3 | 20.9 | 23.6 | 26.7 | 23.2 | – | – | 18.8 | – | – | – | – | – | – | – | –
CC1=C(SCc2ccccc2)C(=O)c2ccccc2C1=O | 30.9 | – | > 100 | 27.9 | – | 51.6 | 71.7 | 40.1 | 33.5 | – | – | 57 | – | – | – | – | – | – | – | –
COc1ccc(-c2nsc3c2NC(=O)CC3c2ccc3c(c2)OCO3)cc1 (stereo not given) | > 100 | 54.5 | > 100 | 0.539 | > 100 | > 100 | > 100 | – | – | 3.24 | 1.6 | 6.37 | 2.06 | 0.408 | 0.219 | 7.28 | 0.498 | 3.19 | – | –
CNS(=O)(=O)NN(C)S(=O)(=O)c1ccc(Cl)cc1 | > 100 | – | > 100 | – | > 100 | – | – | > 100 | > 100 | – | – | > 100 | – | – | – | – | – | – | – | –
Oc1ccc2occ3c2c1CCC3 | > 100 | – | > 100 | – | – | > 100 | – | – | > 100 | – | – | > 100 | – | – | – | – | – | – | – | –
CC1CCC2(NC1)OC1CC3[C@@H]4CC=C5C=CCC[C@]5(C)C4CC[C@]3(C)C1C2C (stereo not given in full) | 35.5 | – | 46.6 | – | > 100 | 34.1 | 50 | 35.2 | 88.7 | – | – | 31.4 | – | – | – | – | – | – | – | –
O=CN1N=C(c2ccc(Nc3ccnc4cc(Cl)ccc34)cc2)CC1c1ccccc1 (stereo not given) | 12.2 | 71.1 | – | 4.67 | > 100 | > 100 | > 100 | – | 19.2 | 3.36 | 3.5 | 29.5 | 3.77 | – | 1.59 | 5.22 | 3.96 | 19.8 | 3.12 | –
O=C(Nc1ncc(Cc2ccccc2)s1)c1ccc2c(c1)OCCCO2 | > 100 | > 100 | > 100 | – | > 100 | > 100 | > 100 | > 100 | > 100 | 2.44 | 0.885 | > 100 | 1.14 | 0.254 | – | 1.44 | 0.407 | 11.5 | 0.631 | 1.36
